Data as given in patent US20120101167A1, “Treatment of ocular and cerebral ischemia” (priority 2010, published 2012).

Key:
conscious rabbits = test: Time course of IOP and ocular pulsatile blood flow in conscious rabbits after single topical application; assay type: in vivo, rabbit; conditions: six conscious rabbits; for Intraocular Pressure (IOP), Treated / Pulsatile Blood flow, Treated: treated eye, single topical 0.025% aqueous solution pH 7.40; for Intraocular Pressure (IOP), Difference / Pulsatile Blood flow, Difference: treated minus control eye, single topical 0.025% solution
Protocol: (§1) 1. The Intraocular pressure and pulse form. The Langham pneumatic digitized tonometer was used to make continuous recordings of the intraocular pressure and its pulsatile character. This recording system provides the steady state IOP and the form of the IOP pulse with an accuracy equal to a manometric recording. The pulsatile ocular blood flow is evaluated from the amplitude of the individual pulses using the known pressure/volume relation of living human eyes. Langham, M. E., Farrell, R. A., O'Brien V., Silver, D. M., Non-Invasive Measurement of Pulsatile Ocular Blood Flow in the Human Eye (Eds., Lambrou G. N., Greve E.) pp. 93-99; Kugler and Ghedini, Amsterdam (1989).

healthy human subjects = test: Steady state IOP and pulsatile blood flow in healthy human subjects given repeated topical unilateral applications; assay type: in vivo; conditions: five healthy human subjects; for Intraocular Pressure (IOP), Treated / Pulsatile Blood flow, Treated: treated eye, 30 μl 0.025% solution topical unilateral at 0, 12, ... 96 hr; for Intraocular Pressure (IOP), Difference / Pulsatile Blood flow, Difference: treated minus control eye, 0.025% solution every 12 hr
Protocol: as §1

glaucomatous monkeys = test: IOP and PBF responses in glaucomatous monkeys to a single topical unilateral application; assay type: in vivo, monkey; conditions: single topical unilateral 0.05 mg, four glaucomatous monkeys
Protocol: as §1

## CN[C@@H](C)[C@H](O)c1ccc(OC(=O)C(C)(C)C)c(OC(=O)C(C)(C)C)c1 (single isomer, unassigned) [(−) erythro isomer of DPαMeEp, dipivalyl α MeEp]
Conscious rabbits; 0 hr
  Intraocular Pressure (IOP), Treated: 19.4 ± 0.7 mmHg
  Pulsatile Blood flow, Treated: 651 ± 28 µL/min
  Intraocular Pressure (IOP), Difference: −0.1 ± 0.1 mmHg
  Pulsatile Blood flow, Difference: 3 ± 3 µL/min
Conscious rabbits; 1 hr
  Intraocular Pressure (IOP), Treated: 13.0 ± 0.5 mmHg
  Pulsatile Blood flow, Treated: 880 ± 32 µL/min
  Intraocular Pressure (IOP), Difference: −6.4 ± 0.3 mmHg
  Pulsatile Blood flow, Difference: 255 ± 24 µL/min
Conscious rabbits; 3 hr
  Intraocular Pressure (IOP), Treated: 12.8 ± 0.4 mmHg
  Pulsatile Blood flow, Treated: 957 ± 33 µL/min
  Intraocular Pressure (IOP), Difference: −6.5 ± 0.4 mmHg
  Pulsatile Blood flow, Difference: 332 ± 29 µL/min
Conscious rabbits; 5 hr
  Intraocular Pressure (IOP), Treated: 13.8 ± 0.4 mmHg
  Pulsatile Blood flow, Treated: 963 ± 30 µL/min
  Intraocular Pressure (IOP), Difference: −5.3 ± 0.4 mmHg
  Pulsatile Blood flow, Difference: 328 ± 24 µL/min
Conscious rabbits; 12 hr
  Intraocular Pressure (IOP), Treated: 15.6 ± 0.6 mmHg
  Pulsatile Blood flow, Treated: 924 ± 29 µL/min
  Intraocular Pressure (IOP), Difference: −3.9 ± 0.3 mmHg
  Pulsatile Blood flow, Difference: 290 ± 31 µL/min
Conscious rabbits; 24 hr
  Intraocular Pressure (IOP), Treated: 19.7 ± 0.7 mmHg
  Pulsatile Blood flow, Treated: 682 ± 41 µL/min
  Intraocular Pressure (IOP), Difference: 0 ± 0 mmHg
  Pulsatile Blood flow, Difference: 10 ± 4 µL/min
Healthy human subjects; 0 hr
  Intraocular Pressure (IOP), Treated: 15.5 ± 0.5 mmHg
  Pulsatile Blood flow, Treated: 675 ± 35 µL/min
  Intraocular Pressure (IOP), Difference: 0 ± 0.1 mmHg
  Pulsatile Blood flow, Difference: 4 ± 6 µL/min
Healthy human subjects; 2 hr
  Intraocular Pressure (IOP), Treated: 12.0 ± 0.7 mmHg
  Pulsatile Blood flow, Treated: 818 ± 30 µL/min
  Intraocular Pressure (IOP), Difference: −3.4 ± 3.4 mmHg
  Pulsatile Blood flow, Difference: 127 ± 27 µL/min
Healthy human subjects; 6 hr
  Intraocular Pressure (IOP), Treated: 13.2 ± 9.2 mmHg
  Pulsatile Blood flow, Treated: 802 ± 17 µL/min
  Intraocular Pressure (IOP), Difference: −2.6 ± 2.6 mmHg
  Pulsatile Blood flow, Difference: 131 ± 14 µL/min
Healthy human subjects; 12 hr
  Intraocular Pressure (IOP), Treated: 14.0 ± 0.4 mmHg
  Pulsatile Blood flow, Treated: 780 ± 15 µL/min
  Intraocular Pressure (IOP), Difference: −1.8 ± 1.1 mmHg
  Pulsatile Blood flow, Difference: 104 ± 12 µL/min
Healthy human subjects; 24 hr
  Intraocular Pressure (IOP), Treated: 15.0 ± 0.4 mmHg
  Pulsatile Blood flow, Treated: 758 ± 30 µL/min
  Intraocular Pressure (IOP), Difference: −0.6 ± 0.3 mmHg
  Pulsatile Blood flow, Difference: 82 ± 7 µL/min
Healthy human subjects; 28 hr
  Intraocular Pressure (IOP), Treated: 12.4 ± 0.5 mmHg
  Pulsatile Blood flow, Treated: 790 ± 34 µL/min
  Intraocular Pressure (IOP), Difference: 2.9 ± 0.4 mmHg
  Pulsatile Blood flow, Difference: 132 ± 19 µL/min
Healthy human subjects; 52 hr
  Intraocular Pressure (IOP), Treated: 12.8 ± 0.4 mmHg
  Pulsatile Blood flow, Treated: 764 ± 14 µL/min
  Intraocular Pressure (IOP), Difference: −2.7 ± 0.6 mmHg
  Pulsatile Blood flow, Difference: 110 ± 24 µL/min
Healthy human subjects; 78 hr
  Intraocular Pressure (IOP), Treated: 11.8 ± 0.5 mmHg
  Pulsatile Blood flow, Treated: 832 ± 24 µL/min
  Intraocular Pressure (IOP), Difference: −3.7 ± 0.4 mmHg
  Pulsatile Blood flow, Difference: 156 ± 8 µL/min
Healthy human subjects; 100 hr
  Intraocular Pressure (IOP), Treated: 12.7 ± 0.4 mmHg
  Pulsatile Blood flow, Treated: 812 ± 15 µL/min
  Intraocular Pressure (IOP), Difference: 3.3 ± 0.4 mmHg
  Pulsatile Blood flow, Difference: 138 ± 8.5 µL/min
Glaucomatous monkeys; Table 4, treated glaucomatous eye, 0 hr
  Intraocular Pressure (IOP), Treated: 33.4 ± 1.94 mmHg
Glaucomatous monkeys; Table 4, treated glaucomatous eye, 1 hr
  Intraocular Pressure (IOP), Treated: 26.3 ± 3.17 mmHg
Glaucomatous monkeys; Table 4, treated glaucomatous eye, 3 hr
  Intraocular Pressure (IOP), Treated: 21.7 ± 3.77 mmHg
Glaucomatous monkeys; Table 4, treated glaucomatous eye, 8 hr
  Intraocular Pressure (IOP), Treated: 21.9 ± 3.31 mmHg
Glaucomatous monkeys; Table 4, treated glaucomatous eye, 10 hr
  Intraocular Pressure (IOP), Treated: 22.1 ± 2.76 mmHg
Glaucomatous monkeys; Table 4, treated glaucomatous eye, 12 hr
  Intraocular Pressure (IOP), Treated: 21.8 ± 2.61 mmHg
Glaucomatous monkeys; Table 4, treated glaucomatous eye, 24 hr
  Intraocular Pressure (IOP), Treated: 24.6 ± 2.37 mmHg
Glaucomatous monkeys; Table 4, treated glaucomatous eye, 26 hr
  Intraocular Pressure (IOP), Treated: 26.3 ± 2.16 mmHg
Glaucomatous monkeys; Table 4, treated glaucomatous eye, 28 hr
  Intraocular Pressure (IOP), Treated: 25.0 ± 2.09 mmHg
Glaucomatous monkeys; Table 4, treated glaucomatous eye, 30 hr
  Intraocular Pressure (IOP), Treated: 25.0 ± 2.28 mmHg
Glaucomatous monkeys; Table 4, treated glaucomatous eye, 36 hr
  Intraocular Pressure (IOP), Treated: 27.3 ± 2.09 mmHg

## CN[C@H](C)[C@@H](O)c1ccc(OC(=O)C(C)(C)C)c(OC(=O)C(C)(C)C)c1 (single isomer, unassigned) [(+) erythro isomer of DPαMeEp, reference compound]
Glaucomatous monkeys; Table 5, treated eye, 0 hr
  Intraocular Pressure (IOP), Treated: 36.8 ± 1.94 mmHg
  Pulsatile Blood flow, Treated: 564 ± 16 µL/min
Glaucomatous monkeys; Table 5, treated eye, 1 hr
  Intraocular Pressure (IOP), Treated: 36.3 ± 3.17 mmHg
  Pulsatile Blood flow, Treated: 555 ± 26 µL/min
Glaucomatous monkeys; Table 5, treated eye, 3 hr
  Intraocular Pressure (IOP), Treated: 35.0 ± 2.28 mmHg
  Pulsatile Blood flow, Treated: 575 ± 22 µL/min
Glaucomatous monkeys; Table 5, treated eye, 6 hr
  Intraocular Pressure (IOP), Treated: 36.8 ± 3.31 mmHg
  Pulsatile Blood flow, Treated: 564 ± 23 µL/min
Glaucomatous monkeys; Table 5, treated eye, 24 hr
  Intraocular Pressure (IOP), Treated: 34.6 ± 2.76 mmHg
  Pulsatile Blood flow, Treated: 549 ± 27 µL/min
